Assay results reported in patent US20160120854A1, “PHARMACEUTICAL COMPOSITIONS” (BAYER PHARMA AKTIENGESELl SCHAFT, priority 2013, published 2016).
Converted amounts (≈) assume the structure as drawn.

Columns and labels:
Assay type in all cases: physicochemical
[1] = Solubility in PEG400 based vehicles
[2] = Nine months stability study in PEG400 based LSF; details: nine months at 25 and 40° C.
[3] = Stability in PEG6000 melt; details: 20% drug load, minimally two months, room temperature
Protocol: Nine parts of PEG6000 were melted in an aluminium cup (70° to 90° C.). One part of (2R)-2-(4-fluorophenyl)-N-[4-(2-{[2-methoxy-4-(methylsulfonyl)phenyl]-amino}[1,2,4]triazolo[1,5-a]pyridin-6-yl)phenyl]propanamide was added to the PEG 6000 melt. The mixture was stirred with a glass stick at approximately 90° C. After complete dissolution of (2R)-2-(4-fluorophenyl)-N-[4-(2-{[2-methoxy-4-(methylsulfonyl)phenyl]amino}[1,2,4]triazolo[1,5-a]pyridin-6-yl)phenyl]propanamide, the melt was cooled down by embedding the cup in a ice-water/NaCl mixture for several minutes. The solidified melt was pestled. (2R)-2-(4-fluorophenyl)-N-[4-(2-{[2-methoxy-4-(methylsulfonyl)phenyl]-amino}[1,2,4]triazolo[1,5-a]pyridin-6-yl)phenyl]propanamide is stable in PEG6000 melt with 20% drug load for minimally two months at room temperature.

`COc1cc(S(C)(=O)=O)ccc1Nc1nc2ccc(-c3ccc(NC(=O)[C@H](C)c4ccc(F)cc4)cc3)cn2n1` [compound A, (2R)-2-(4-fluorophenyl)-N-[4-(2-{[2-methoxy-4-(methylsulfonyl)phenyl]-amino}[1,2,4]triazolo[1,5-a]pyridin-6-yl)phenyl]propanamide] gave a solubility ([1]; aqueous with cosolvent or surfactant or cyclodextrin, in PEG400/PVP/water 8:1:1) of about 25 mg/mL (≈ 44.7 mM), a solubility ([1]; organic solvent or mixture, in PEG400/PVP 8:2) of about 25 mg/mL (≈ 44.7 mM) and a solubility ([1]; organic solvent or mixture, in PEG400 based LSF (PEG400/Tween 80/L-Menthol 97:2, 5:0, 5)) of about 25 mg/mL (≈ 44.7 mM). For the same compound, the “stability in PEG400 based LSF” value [2] was “no significant time dependant instability” and the “stability in PEG6000 melt” value [3] was “stable”.
